We go through 15 compounds from ChEMBL document CHEMBL1944622, “Constituents of Dalbergia sissoo Roxb. leaves with osteogenic activity” (Bioorg Med Chem Lett, 2012).

The source made the active and inactive calls. The rule behind the calls is not given here.

Data set [1] relates to Calvarial osteoblast. As to the kind of experiment: Osteogenic activity in rat primary calvarial osteoblasts assessed as induction of ALP activity at 1 pM to 1 uM after 10 days by colorimetry. In kind it is functional, cell-based.
Data set [2] has as its system Ishikawa. As to the kind of experiment: Estrogenic activity in ER expressing human Ishikawa cells assessed as induction of ALP activity at 100 pM relative to control. In kind it is functional.
Data set [3] concerns Calvarial osteoblast. The data set is described as follows: Induction of rat calvarial osteoblast mineralization assessed as increase in formation of mineralized calcium nodules at 1 pM after 21 days by alizarin red-S staining-based assay. The format is functional, cell-based.
Data set [4] in a line: Toxicity in rat calvarial osteoblast cells at 1 pM to 1 uM after 48 hrs by MTT assay. The format is cell-based.
For data set [5], the system named is Rattus norvegicus. The data set is described as follows: Osteogenic activity in rat assessed as increase in ALP expression in calvaria at 1 mg/kg, sc qd for 3 days by qPCR analysis. In kind it is functional, organism-based. Also noted: dose 1 mg/kg. For orientation: Real-time PCR tracks product formation cycle by cycle.
Data set [6] can be described thus: Upregulation of BMP-2 in rat primary calvarial osteoblast cells after 48 hrs by qPCR analysis relative to control. In kind it is functional, cell-based.
The subject of data set [7] is Calvarial osteoblast. As to the kind of experiment: Osteogenic activity in rat primary calvarial osteoblasts assessed as induction of ALP activity at 1 pM to 1 uM after 10 days by colorimetry in presence of anti-estrogen ICI-182780. The format is functional, cell-based.
In data set [8] the test system is Ishikawa. As to the kind of experiment: Antiestrogenic activity in ER expressing human Ishikawa cells assessed as inhibition of ALP activity at 1 pM to 1 uM. The format is functional, cell-based.
Data set [9] relates to Ishikawa. The data set is described as follows: Estrogenic activity in ER expressing human Ishikawa cells assessed as induction of ALP activity at 1 pM to 1 uM in presence of 17beta-E2. In kind it is functional, cell-based.
The test system of data set [10] is Calvarial osteoblast. As to the kind of experiment: Osteogenic activity in rat primary calvarial osteoblasts assessed as induction of ALP activity at 1 pM after 10 days by colorimetry. In kind it is functional, cell-based.
Data set [11] relates to Rattus norvegicus. The data set is described as follows: Osteogenic activity in rat assessed as increase in collagen-1 expression in calvaria at 1 mg/kg, sc qd for 3 days by qPCR analysis. Also noted: dose 1 mg/kg. In kind it is functional, organism-based.
In data set [12] the test system is Rattus norvegicus. As to the kind of experiment: Osteogenic activity in rat assessed as increase in ALP expression in calvaria administered as sc qd for 3 days by qPCR analysis. The format is functional, organism-based.
Data set [13] has as its system Ishikawa. The data set is described as follows: Estrogenic activity in ER expressing human Ishikawa cells assessed as induction of ALP activity at 1 pM to 1 uM. In kind it is functional, cell-based.
In data set [14] the test system is Rattus norvegicus. As to the kind of experiment: Osteogenic activity in rat assessed as increase in collagen-1 expression in calvaria at 5 mg/kg, sc qd for 3 days by qPCR analysis. In kind it is functional, organism-based. The arrangement: dose 5 mg/kg.
For data set [15], the system named is Rattus norvegicus. As to the kind of experiment: Osteogenic activity in rat assessed as increase in collagen-1 expression in calvaria at 10 mg/kg, sc qd for 3 days by qPCR analysis. The arrangement: dose 10 mg/kg. In kind it is functional, organism-based.
Data set [16] has as its system Rattus norvegicus. As to the kind of experiment: Osteogenic activity in rat assessed as increase in ALP expression in calvaria at 5 mg/kg, sc qd for 3 days by qPCR analysis. In kind it is functional, organism-based. Also noted: dose 5 mg/kg.
Data set [17] deals with Rattus norvegicus. The data set is described as follows: Osteogenic activity in rat assessed as increase in ALP expression in calvaria at 10 mg/kg, sc qd for 3 days by qPCR analysis. In kind it is functional, organism-based. Also noted: dose 10 mg/kg.
For data set [18], the system named is Calvarial osteoblast. As to the kind of experiment: Induction of rat calvarial osteoblast mineralization assessed as increase in formation of mineralized calcium nodules at 10 nM after 21 days by alizarin red-S staining-based assay. The format is functional, cell-based.
Data set [19] relates to Ishikawa. The data set is described as follows: Estrogenic activity in ER expressing human Ishikawa cells assessed as induction of ALP activity at 10 nM. In kind it is functional, cell-based.
In data set [20] the test system is Calvarial osteoblast. The data set is described as follows: Osteogenic activity in rat calvarial osteoblasts assessed as induction of ALP activity at 10 nM after 48 hrs by spectrophotometry in presence of anti-estrogen ICI-182780. The format is functional, cell-based.

On to `COc1cc(OC)c(-c2coc3cc(O[C@@H]4O[C@H](CO)[C@@H](O)[C@H](O)[C@H]4O)c(OC)c(O)c3c2=O)cc1OC`, for which the result in data set [1] was inactive.

For `COc1cc([C@H]2OC[C@H]3[C@@H]2CO[C@@H]3c2cc(OC)c(O[C@@H]3O[C@H](CO)[C@@H](O)[C@H](O)[C@H]3O)c(OC)c2)cc(OC)c1O`, the outcome in [1] was inactive.

Consider `C[C@]12CC[C@@H]3c4ccc(O)cc4CC[C@H]3[C@@H]1CC[C@@H]2O` [ESTRADIOL], for which the “fold change (FC)” value in [2] came out at 1.5.

Regarding `C[C@@H]1O[C@@H](OC[C@H]2O[C@@H](Oc3c(-c4ccc(O)c(O)c4)oc4cc(O)cc(O)c4c3=O)[C@H](O)[C@@H](O)[C@@H]2O)[C@H](O)[C@H](O)[C@H]1O`, the result in data set [1] was inactive.

Regarding `COc1ccc(-c2coc3cc(O[C@@H]4O[C@H](CO[C@@H]5OC[C@](O)(CO)[C@H]5O)[C@@H](O)[C@H](O)[C@H]4O)cc(O)c3c2=O)cc1`, in [1], the outcome was inactive.

For the compound `O=c1c(O[C@@H]2O[C@H](CO)[C@@H](O)[C@H](O)[C@H]2O)c(-c2ccc(O)c(O)c2)oc2cc(O)cc(O)c12`, the result in [1] was inactive.

For the compound `COc1cc(OC)c(-c2coc3cc(O[C@@H]4O[C@H](CO[C@@H]5OC[C@](O)(CO)[C@H]5O)[C@@H](O)[C@H](O)[C@H]4O)c(OC)c(O)c3c2=O)cc1OC`, the outcome in [3], in [5], in data set [7], in [10], in data set [11] and in data set [1] was Active. In addition, the outcome in [16] was Active. The Activity result in data set [4] was “Non-toxic”; in data set [12], “Dose-dependent effect”. The same compound gave a fold change (FC) in data set [6] of 15. In addition, the outcome in [8], in [13], in [14], in [15] and in data set [17] was inactive. Further, the inhibition result in [9] is “inactive”.

For `COC(=O)C/C(=C\c1ccc(O)c(O)c1)C(=O)O`, the outcome in data set [1] was inactive.

As for `O=c1c(O[C@@H]2O[C@H](CO)[C@@H](O)[C@H](O)[C@H]2O)c(-c2ccc(O)cc2)oc2cc(O)cc(O)c12`, the outcome in data set [1] was inactive.

Regarding `COc1ccc(-c2coc3cc(O[C@@H]4O[C@H](CO[C@@H]5OC[C@](O)(CO[C@@H]6OC[C@](O)(CO)[C@H]6O)[C@H]5O)[C@@H](O)[C@H](O)[C@H]4O)cc(O)c3c2=O)cc1`, in [1], the outcome was inactive.

Take `COc1ccc(-c2coc3cc(O)cc(O)c3c2=O)cc1O` [PRATENSEIN]: the Activity entry in [4] is on record as “Non-toxic”. Moreover, the result in data set [7], in data set [18] and in [1] was Active. Besides, the outcome in [8] and in [13] was inactive. Further, the inhibition result in data set [9] was “inactive”.

For the compound `COc1cc(OC)c(-c2coc3cc(O)c(OC)c(O)c3c2=O)cc1OC`, in data set [1], the result was inactive.

Regarding `COc1ccc(-c2coc3cc(O)cc(O)c3c2=O)cc1` [BIOCHANIN], the Activity result in data set [4] was “Non-toxic”. Besides, the outcome in data set [18], in data set [19] and in data set [1] was Active. Moreover, the outcome in [20] was inactive.

Take `O=c1c(-c2ccc(O)cc2)coc2cc(O)cc(O)c12` [GENISTEIN]: the Activity entry in data set [4] was “Non-toxic”. In addition, in data set [6], the fold change (FC) was 5. The result in data set [7], in [18] and in data set [1] was Active. Further, the outcome in [8] and in data set [13] was inactive. Besides, the inhibition entry in [9] was “inactive”.

As to `C[C@@H]1O[C@@H](OC[C@H]2O[C@@H](Oc3c(-c4ccc(O)cc4)oc4cc(O)cc(O)c4c3=O)[C@H](O)[C@@H](O)[C@@H]2O)[C@H](O)[C@H](O)[C@H]1O`, the result in data set [1] was inactive.
